The numbers were not newly measured in US12716021B2, “Aqueous modified acid compositions and methods of using the same” (FLUID ENERGY GROUP LTD., priority 2019, dated 2026), which cites them from elsewhere.

The conditions of this data set: death in 2-3 minutes.

On to `Cl` [hydrogen chloride gas, hydrogen chloride], for which the “levels at which death can occur” value is 1300-2000 ppm.
